Data published in ChEMBL document CHEMBL1201862, “PubChem BioAssay data set” (2004).
The source made the active and inactive calls.

Columns and labels:
[1] = biological target: T1, Tyrosine-protein phosphatase non-receptor type 22 (Homo sapiens, UniProt Q9Y2R2); format: functional
T1 sequence (Q9Y2R2 whole entry): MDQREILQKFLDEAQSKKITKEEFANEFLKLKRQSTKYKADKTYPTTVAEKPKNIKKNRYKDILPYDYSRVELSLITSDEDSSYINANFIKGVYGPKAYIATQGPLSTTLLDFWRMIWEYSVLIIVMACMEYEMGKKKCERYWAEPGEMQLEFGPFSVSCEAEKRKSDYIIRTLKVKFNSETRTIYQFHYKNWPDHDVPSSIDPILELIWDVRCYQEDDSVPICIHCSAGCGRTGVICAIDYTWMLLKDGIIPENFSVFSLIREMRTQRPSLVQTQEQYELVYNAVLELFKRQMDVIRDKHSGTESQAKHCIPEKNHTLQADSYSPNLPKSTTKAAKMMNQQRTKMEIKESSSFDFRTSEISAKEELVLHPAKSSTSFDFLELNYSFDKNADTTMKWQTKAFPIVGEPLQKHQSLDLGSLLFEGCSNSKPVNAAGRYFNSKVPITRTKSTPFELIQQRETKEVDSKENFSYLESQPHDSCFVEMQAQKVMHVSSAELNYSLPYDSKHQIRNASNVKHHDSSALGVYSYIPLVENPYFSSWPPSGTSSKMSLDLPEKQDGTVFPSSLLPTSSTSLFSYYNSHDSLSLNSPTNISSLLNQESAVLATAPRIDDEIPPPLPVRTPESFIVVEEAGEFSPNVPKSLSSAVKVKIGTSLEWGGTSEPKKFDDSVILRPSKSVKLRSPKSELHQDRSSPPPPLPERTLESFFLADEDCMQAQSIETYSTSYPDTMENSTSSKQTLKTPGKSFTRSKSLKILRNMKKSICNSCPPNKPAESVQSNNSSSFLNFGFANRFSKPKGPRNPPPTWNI

[2] = biological target: T1, Tyrosine-protein phosphatase non-receptor type 22; format: functional; remark: listed apart in the source
[3] = biological target: T2, Tyrosine-protein phosphatase non-receptor type 7 (Homo sapiens, UniProt P35236); format: functional
T2 sequence (P35236 whole entry): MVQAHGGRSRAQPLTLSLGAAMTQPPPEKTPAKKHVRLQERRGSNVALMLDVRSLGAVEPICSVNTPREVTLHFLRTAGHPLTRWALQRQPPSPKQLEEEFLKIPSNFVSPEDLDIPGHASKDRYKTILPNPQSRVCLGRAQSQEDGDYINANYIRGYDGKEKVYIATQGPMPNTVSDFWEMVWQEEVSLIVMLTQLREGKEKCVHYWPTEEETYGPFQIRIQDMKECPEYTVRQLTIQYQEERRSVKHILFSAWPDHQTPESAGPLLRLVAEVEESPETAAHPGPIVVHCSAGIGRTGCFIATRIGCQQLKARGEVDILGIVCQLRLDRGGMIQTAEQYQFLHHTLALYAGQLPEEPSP

[4] = A small molecule screen for inhibitors of the PhoP region in Salmonella typhi (4) using purified and synthesized compounds. [Related pubchem assays (depositor defined):AID1850, AID1864, AID1985, AID2252, AID2384, AID2612, AID2811, AID434995]; format: functional
[5] = biological target: Glucose-6-phosphate 1-dehydrogenase (Homo sapiens, UniProt P11413); experiment: inhibition of Homo sapiens G6PD, dose series – biochemical, fluorescence, selectivity assay for P. falciparum G6PD inhibitor project, dose response (AID 504792); format: functional
[6] = biological target: T3, Runt-related transcription factor 1/Core-binding factor subunit beta (Homo sapiens, UniProt Q01196+Q13951); experiment: Runt domain/CBFb-SMMHC interaction disruptors – biochemical, TR-FRET (AID 1438); format: protein assay
[7] = biological target: T4, Mannose-6-phosphate isomerase (Homo sapiens, UniProt P34949); experiment: MPI inhibition at elevated mannose 6-phosphate – biochemical, fluorescence intensity, high mannose 6-phosphate, primary screen (AID 1220)
T4 sequence (P34949 whole entry): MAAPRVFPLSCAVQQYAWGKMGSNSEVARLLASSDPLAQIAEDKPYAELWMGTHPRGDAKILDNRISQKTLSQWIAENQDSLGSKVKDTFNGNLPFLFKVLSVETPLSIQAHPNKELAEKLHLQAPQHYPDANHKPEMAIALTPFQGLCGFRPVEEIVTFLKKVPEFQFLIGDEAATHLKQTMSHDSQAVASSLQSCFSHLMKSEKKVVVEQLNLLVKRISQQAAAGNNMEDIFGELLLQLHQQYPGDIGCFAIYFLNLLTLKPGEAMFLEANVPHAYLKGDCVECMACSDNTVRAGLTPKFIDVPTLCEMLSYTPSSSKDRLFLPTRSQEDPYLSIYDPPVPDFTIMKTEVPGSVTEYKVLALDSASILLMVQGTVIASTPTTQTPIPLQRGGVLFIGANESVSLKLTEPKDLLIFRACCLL

Phosphomannomutase 2 = biological target: T5, Phosphomannomutase 2 (Homo sapiens, UniProt O15305); experiment: Counter screen SAR assay for PMM2 inhibitors via a fluorescence intensity assay. [Related pubchem assays (depositor defined):AID1545, AID1574]
T5 sequence (O15305 whole entry): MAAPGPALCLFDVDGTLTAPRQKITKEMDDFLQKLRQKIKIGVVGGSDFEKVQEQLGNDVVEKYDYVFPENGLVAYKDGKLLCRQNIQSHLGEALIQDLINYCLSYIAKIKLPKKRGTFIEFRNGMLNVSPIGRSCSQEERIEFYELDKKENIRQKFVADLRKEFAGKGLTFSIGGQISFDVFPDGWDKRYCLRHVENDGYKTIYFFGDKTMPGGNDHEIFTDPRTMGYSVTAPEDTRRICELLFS

[8] = biological target: DNA dC->dU-editing enzyme APOBEC-3A (Homo sapiens, UniProt P31941); experiment: A3A deaminase inhibition for selectivity – biochemical, dose response (AID 504722); format: functional
[9] = biological target: DNA dC->dU-editing enzyme APOBEC-3G (Homo sapiens, UniProt Q9HC16); experiment: Dose Response confirmation of small molecule APOBEC3G DNA Deaminase Inhibitors via a fluorescence-based single-stranded DNA deaminase assay. [Related pubchem assays (depositor defined):AID493012, AID493028]; format: functional
[10] = biological target: T6, Voltage-gated N-type calcium channel alpha-1B subunit/Amyloid beta A4 precursor protein-binding family A member 1 (Homo sapiens, UniProt Q00975+Q02410); format: protein assay
[11] = biological target: T3, Runt-related transcription factor 1/Core-binding factor subunit beta; experiment: disruptors of Runt domain/CBFb-SMMHC interaction – biochemical, FRET, Cerulean-Runt, Venus-CBFb-SMMHC, uHTS, […] (AID 1434); format: protein assay
[12] = biological target: T6, Voltage-gated N-type calcium channel alpha-1B subunit/Amyloid beta A4 precursor protein-binding family A member 1; format: protein assay; remark: listed apart in the source
[13] = biological target: T4, Mannose-6-phosphate isomerase; experiment: phosphomannose isomerase inhibition – biochemical, fluorescence intensity, confirmation (AID 1535)
Cannabinoid receptor 2 [14] = biological target: T7, Cannabinoid receptor 2 (Homo sapiens, UniProt P34972); experiment: SAR analysis of antagonists of the Cannabinoid Receptor 2 using an Image-Based Assay. [Related pubchem assays (depositor defined):AID2013, AID2026]; format: functional
Cannabinoid receptor 1 [15] = biological target: T8, Cannabinoid receptor 1 (Homo sapiens, UniProt P21554); experiment: SAR analysis of antagonists of the Cannabinoid Receptor 1 using an Image-Based Assay - Set 2. [Related pubchem assays (depositor defined):AID2013, AID2026]; format: functional
Cannabinoid receptor 2 [16] = biological target: T7, Cannabinoid receptor 2; experiment: SAR analysis of agonists of the Cannabinoid Receptor 2 using an Image-Based Assay. [Related pubchem assays (depositor defined):AID2013, AID2026]; format: functional
Cannabinoid receptor 1 [17] = biological target: T8, Cannabinoid receptor 1; experiment: SAR analysis of agonists of the Cannabinoid Receptor 1 using an Image-Based Assay - Set 2. [Related pubchem assays (depositor defined):AID2013, AID2026]; format: functional
[18] = biological target: T9, G-protein coupled receptor 55 (Homo sapiens, UniProt Q9Y2T6); experiment: blockade of LPI-induced GPR55 arrestin translocation – imaging, U2OS, beta-arrestin-GFP, LPI agonist, set 2, SAR follow-up (AID 2820); format: functional
[19] = biological target: T10, G-protein coupled receptor 35 (Homo sapiens, UniProt Q9HC97); experiment: SAR analysis of Antagonists of the GPR35 Receptor using an Image-Based Assay - Set 3. [Related pubchem assays (depositor defined):AID2013, AID2026]; format: functional
[20] = biological target: T10, G-protein coupled receptor 35; experiment: SAR analysis of Agonists of the GPR35 Receptor using an Image-Based Assay - Set 2. [Related pubchem assays (depositor defined):AID2013, AID2026]; format: functional
[21] = biological target: T9, G-protein coupled receptor 55; experiment: inhibition of LPI-stimulated GPR55 beta-arrestin translocation – imaging, U2OS, beta-arrestin-GFP, LPI agonist, primary screen (AID 2013); format: functional;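 further: antagonist potency measured as reduced agonist-driven arrestin aggregation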
[22] = biological target: Intestinal-type alkaline phosphatase (Homo sapiens, UniProt P09923); experiment: activation of human intestinal alkaline phosphatase – biochemical, dose response (AID 488873); format: functional
SUMO-activating enzyme [23] = biological target: T11, SUMO-activating enzyme (Homo sapiens, UniProt Q9UBT2); experiment: blockers of UBC9-mediated SUMO conjugation – biochemical, AlphaScreen, SUMOylation inhibitor project, confirmation (AID 2018); format: functional
[24] = biological target: Polyadenylate-binding protein 1 (Homo sapiens, UniProt P11940); experiment: blockers of PABP interaction with poly(A) – biochemical, fluorescence polarization, […] (AID 2014)
[25] = biological target: T12, Alkaline phosphatase, tissue-nonspecific isozyme (Homo sapiens, UniProt P05186); experiment: activation of tissue-nonspecific alkaline phosphatase – biochemical, TNAP isozyme, mouse IAP uHTS hits, selectivity assay for mouse IAP activator project, dose response (AID 488880); format: functional
T12 sequence (P05186 whole entry): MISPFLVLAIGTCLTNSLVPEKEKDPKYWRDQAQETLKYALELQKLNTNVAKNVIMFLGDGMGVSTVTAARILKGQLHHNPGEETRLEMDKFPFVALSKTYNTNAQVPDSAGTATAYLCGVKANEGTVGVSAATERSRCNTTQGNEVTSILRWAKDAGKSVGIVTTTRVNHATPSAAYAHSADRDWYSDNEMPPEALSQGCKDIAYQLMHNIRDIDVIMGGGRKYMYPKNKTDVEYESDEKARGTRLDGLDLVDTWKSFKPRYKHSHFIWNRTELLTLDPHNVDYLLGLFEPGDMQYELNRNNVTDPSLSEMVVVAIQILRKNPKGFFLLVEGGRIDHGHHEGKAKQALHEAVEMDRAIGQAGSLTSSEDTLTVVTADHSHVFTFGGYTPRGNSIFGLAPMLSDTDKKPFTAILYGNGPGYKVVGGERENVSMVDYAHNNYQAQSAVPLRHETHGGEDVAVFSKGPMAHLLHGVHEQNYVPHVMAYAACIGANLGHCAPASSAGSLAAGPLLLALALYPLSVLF

[26] = biological target: Eukaryotic translation initiation factor 4H (Homo sapiens, UniProt Q15056); experiment: eIF4H binding inhibition – biochemical, uHTS, fluorescence polarization, translation initiation inhibitor project, primary screen (AID 2012)
SUMO-activating enzyme [27] = biological target: T11, SUMO-activating enzyme; experiment: blockers of SAE1/SAE2–UBC9 SUMO transfer – biochemical, HTRF, uHTS, primary screen (AID 2006); format: protein-complex assay
[28] = biological target: Intestinal-type alkaline phosphatase (Mus musculus, UniProt P24822); experiment: mouse intestinal alkaline phosphatase activators, dose response, biochemical, luminescence, uHTS hits (AID 488783); format: functional

T6 sequence (Q00975 whole entry, the tested form may be a part): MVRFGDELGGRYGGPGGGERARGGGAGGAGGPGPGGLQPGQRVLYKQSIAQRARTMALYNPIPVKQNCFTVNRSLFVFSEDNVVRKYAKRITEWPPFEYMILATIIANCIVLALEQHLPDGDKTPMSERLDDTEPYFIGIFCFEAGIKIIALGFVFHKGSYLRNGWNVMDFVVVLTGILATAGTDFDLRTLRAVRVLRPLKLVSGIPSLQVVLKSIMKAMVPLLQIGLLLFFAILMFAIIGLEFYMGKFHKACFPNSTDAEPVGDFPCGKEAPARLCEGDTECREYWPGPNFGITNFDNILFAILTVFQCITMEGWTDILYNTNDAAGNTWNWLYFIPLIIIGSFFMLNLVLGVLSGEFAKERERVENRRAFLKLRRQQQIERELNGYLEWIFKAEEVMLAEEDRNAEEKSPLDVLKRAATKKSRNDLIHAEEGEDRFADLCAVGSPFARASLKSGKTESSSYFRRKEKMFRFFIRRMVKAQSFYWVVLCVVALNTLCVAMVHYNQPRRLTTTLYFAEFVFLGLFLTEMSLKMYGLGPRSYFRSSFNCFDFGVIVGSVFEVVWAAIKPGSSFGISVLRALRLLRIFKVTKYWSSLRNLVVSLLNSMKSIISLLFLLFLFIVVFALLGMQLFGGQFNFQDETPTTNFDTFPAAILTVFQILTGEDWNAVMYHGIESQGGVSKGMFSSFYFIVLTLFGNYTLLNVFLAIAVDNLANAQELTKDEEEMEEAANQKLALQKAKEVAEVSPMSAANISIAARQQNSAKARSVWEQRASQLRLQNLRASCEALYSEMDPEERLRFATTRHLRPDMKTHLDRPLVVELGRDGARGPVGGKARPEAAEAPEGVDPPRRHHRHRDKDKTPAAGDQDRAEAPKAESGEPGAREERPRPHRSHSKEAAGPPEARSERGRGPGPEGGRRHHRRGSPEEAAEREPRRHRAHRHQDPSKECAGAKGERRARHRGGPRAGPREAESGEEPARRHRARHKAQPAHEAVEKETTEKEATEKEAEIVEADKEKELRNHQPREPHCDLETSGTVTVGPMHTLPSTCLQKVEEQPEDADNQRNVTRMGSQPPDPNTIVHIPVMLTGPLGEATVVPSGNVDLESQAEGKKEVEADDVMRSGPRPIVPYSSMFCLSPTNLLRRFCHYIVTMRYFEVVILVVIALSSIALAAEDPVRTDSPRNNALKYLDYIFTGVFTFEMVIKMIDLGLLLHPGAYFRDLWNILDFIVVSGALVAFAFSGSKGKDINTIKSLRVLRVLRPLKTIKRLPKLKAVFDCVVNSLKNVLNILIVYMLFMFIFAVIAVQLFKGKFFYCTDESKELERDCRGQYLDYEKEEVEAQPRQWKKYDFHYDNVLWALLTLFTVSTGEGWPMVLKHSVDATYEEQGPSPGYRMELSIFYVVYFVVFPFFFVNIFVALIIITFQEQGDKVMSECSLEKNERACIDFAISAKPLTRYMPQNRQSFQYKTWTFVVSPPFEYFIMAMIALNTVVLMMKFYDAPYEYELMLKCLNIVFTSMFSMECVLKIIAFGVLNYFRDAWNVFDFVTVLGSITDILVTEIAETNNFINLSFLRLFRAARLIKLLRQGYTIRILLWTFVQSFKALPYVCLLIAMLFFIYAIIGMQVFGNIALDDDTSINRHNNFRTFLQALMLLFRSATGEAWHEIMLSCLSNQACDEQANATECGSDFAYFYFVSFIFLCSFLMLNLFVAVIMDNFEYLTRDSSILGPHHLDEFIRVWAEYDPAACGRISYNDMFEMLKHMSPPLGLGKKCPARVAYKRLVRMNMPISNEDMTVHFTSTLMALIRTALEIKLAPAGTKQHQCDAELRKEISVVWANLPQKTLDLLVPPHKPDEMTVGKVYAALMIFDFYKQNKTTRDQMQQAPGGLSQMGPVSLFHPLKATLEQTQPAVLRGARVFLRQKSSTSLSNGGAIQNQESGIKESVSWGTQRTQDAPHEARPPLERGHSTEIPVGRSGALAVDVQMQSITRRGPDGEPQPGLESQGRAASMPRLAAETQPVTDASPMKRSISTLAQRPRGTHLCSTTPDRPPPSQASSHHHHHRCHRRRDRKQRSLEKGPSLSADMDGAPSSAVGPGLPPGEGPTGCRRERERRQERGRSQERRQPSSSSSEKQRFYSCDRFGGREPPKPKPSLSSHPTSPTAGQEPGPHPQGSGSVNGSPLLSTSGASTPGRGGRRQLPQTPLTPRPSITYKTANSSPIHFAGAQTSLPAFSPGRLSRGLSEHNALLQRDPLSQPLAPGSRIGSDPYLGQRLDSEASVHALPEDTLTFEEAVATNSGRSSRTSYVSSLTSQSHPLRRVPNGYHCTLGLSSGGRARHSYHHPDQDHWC
T6 sequence (Q02410 whole entry, the tested form may be a part): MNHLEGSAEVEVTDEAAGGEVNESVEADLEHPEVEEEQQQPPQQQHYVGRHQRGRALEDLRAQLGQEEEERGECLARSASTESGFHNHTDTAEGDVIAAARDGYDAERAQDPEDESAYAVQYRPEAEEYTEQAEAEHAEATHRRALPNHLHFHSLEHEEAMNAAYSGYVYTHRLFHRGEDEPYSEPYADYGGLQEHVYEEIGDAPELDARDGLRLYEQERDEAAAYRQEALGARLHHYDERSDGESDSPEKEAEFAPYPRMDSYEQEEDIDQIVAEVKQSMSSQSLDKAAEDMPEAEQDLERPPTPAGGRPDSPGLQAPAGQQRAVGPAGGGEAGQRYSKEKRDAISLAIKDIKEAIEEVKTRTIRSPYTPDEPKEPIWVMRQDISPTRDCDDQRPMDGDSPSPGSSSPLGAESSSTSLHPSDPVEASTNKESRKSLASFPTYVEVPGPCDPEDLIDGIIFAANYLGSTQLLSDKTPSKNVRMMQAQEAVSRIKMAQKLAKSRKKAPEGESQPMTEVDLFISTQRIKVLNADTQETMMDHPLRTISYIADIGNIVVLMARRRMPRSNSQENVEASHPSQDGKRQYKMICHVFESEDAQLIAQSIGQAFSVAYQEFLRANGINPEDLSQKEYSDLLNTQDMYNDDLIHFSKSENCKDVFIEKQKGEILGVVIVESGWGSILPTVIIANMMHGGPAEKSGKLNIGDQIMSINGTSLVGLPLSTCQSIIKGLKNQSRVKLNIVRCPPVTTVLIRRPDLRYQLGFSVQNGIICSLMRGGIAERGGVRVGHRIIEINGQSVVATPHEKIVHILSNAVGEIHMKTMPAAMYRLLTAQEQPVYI
T11 sequence (Q9UBE0 whole entry): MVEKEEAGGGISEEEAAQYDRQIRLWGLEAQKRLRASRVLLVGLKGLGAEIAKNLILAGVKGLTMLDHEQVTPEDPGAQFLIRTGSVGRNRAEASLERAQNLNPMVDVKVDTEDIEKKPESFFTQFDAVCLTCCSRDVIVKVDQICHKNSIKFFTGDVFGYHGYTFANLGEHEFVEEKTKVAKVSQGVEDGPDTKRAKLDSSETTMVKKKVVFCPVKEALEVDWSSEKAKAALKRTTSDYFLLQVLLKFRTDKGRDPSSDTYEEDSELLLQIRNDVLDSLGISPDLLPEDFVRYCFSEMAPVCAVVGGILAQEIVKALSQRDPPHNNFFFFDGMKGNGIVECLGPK
T11 sequence (Q9UBT2 whole entry): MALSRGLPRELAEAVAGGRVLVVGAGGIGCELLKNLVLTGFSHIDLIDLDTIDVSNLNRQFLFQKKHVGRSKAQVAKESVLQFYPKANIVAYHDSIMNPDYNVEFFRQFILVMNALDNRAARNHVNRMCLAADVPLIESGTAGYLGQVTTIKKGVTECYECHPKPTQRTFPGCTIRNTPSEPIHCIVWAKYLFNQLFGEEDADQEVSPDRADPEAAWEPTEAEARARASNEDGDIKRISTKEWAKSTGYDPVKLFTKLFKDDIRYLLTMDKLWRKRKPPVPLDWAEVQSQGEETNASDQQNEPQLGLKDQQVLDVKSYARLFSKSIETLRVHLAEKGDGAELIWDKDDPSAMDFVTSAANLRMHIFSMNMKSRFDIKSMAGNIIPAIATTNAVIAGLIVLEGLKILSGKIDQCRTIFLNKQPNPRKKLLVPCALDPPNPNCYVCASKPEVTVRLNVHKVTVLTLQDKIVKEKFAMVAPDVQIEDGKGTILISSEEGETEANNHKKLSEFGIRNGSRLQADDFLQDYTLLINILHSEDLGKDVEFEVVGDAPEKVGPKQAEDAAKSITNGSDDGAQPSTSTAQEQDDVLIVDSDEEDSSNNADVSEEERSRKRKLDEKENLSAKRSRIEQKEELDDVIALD
T9 sequence (Q9Y2T6 whole entry): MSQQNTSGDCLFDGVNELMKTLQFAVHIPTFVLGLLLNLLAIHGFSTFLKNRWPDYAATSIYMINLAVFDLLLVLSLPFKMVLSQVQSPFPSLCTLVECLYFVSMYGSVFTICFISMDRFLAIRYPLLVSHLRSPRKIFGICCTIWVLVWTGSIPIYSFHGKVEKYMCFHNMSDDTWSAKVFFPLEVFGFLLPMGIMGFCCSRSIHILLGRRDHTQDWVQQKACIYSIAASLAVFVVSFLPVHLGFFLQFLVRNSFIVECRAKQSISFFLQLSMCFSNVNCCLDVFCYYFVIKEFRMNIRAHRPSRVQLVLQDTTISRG
T8 sequence (P21554 whole entry): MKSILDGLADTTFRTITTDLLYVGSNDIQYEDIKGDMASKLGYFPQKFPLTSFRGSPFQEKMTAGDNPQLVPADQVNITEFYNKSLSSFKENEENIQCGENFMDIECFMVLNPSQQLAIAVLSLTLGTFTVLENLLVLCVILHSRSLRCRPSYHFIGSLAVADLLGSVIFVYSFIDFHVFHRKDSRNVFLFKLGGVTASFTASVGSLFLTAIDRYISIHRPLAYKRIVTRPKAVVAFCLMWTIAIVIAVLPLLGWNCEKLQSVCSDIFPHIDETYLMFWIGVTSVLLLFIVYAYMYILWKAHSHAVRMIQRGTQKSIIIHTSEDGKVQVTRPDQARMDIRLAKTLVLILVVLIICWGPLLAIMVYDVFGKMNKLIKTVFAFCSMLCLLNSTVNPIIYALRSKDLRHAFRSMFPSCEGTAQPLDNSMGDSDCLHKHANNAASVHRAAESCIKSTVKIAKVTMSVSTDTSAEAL

Question: For `Cc1cccc(-n2cc(CN3CCN(C(=O)c4nc[nH]n4)CC3)c(-c3cccc(F)c3)n2)c1`, which IC50 [1] is on record?
Answer: > 79.4 µM (inactive)

Question: And the IC50 [2]?
Answer: > 79.4 µM (inactive)

Question: And the IC50 [3]?
Answer: > 79.4 µM (inactive)

Question: For `COc1cccc(CNC(=S)Nc2ccncc2)c1`, which IC50 [4] is on record?
Answer: 164 µM (active)

Question: With `CCOC(=O)Cc1csc(-n2sc3ccccc3c2=O)n1` as the molecule, how does the IC50 [5] read?
Answer: 21.6 µM (inactive)

Question: What about the IC50 [6] of the same molecule?
Answer: 8.58 µM (active)

Question: What about the IC50 [7] of the same molecule?
Answer: 23.5 µM (active)

Question: What about the IC50 (Phosphomannomutase 2) of the same molecule?
Answer: > 100 µM (inactive)

Question: And the IC50 [8]?
Answer: > 100 µM (inactive)

Question: And the IC50 [9]?
Answer: 12.6 µM (active)

Question: And the IC50 [10]?
Answer: 1.15 µM (active)

Question: What about the IC50 [11] of the same molecule?
Answer: 5.4 µM (active)

Question: And the IC50 [12]?
Answer: > 50 µM (inactive)

Question: And the IC50 [13]?
Answer: > 50 µM (inactive)

Question: With `CCCCC1(Cc2cccc([N+](=O)[O-])c2)C(=O)N(c2ccccc2)N(c2ccccc2)C1=O` as the molecule, how does the IC50 (Cannabinoid receptor 2 [14]) read?
Answer: > 32 µM (inactive)

Question: And the IC50 (Cannabinoid receptor 1 [15])?
Answer: 11 µM (inactive)

Question: What about the EC50 (Cannabinoid receptor 2 [16]) of the same molecule?
Answer: > 32 µM (inactive)

Question: And the EC50 (Cannabinoid receptor 1 [17])?
Answer: > 32 µM (inactive)

Question: And the IC50 [18]?
Answer: 0.577 µM (active)

Question: And the IC50 [19]?
Answer: > 32 µM (inactive)

Question: What about the EC50 [20] of the same molecule?
Answer: > 32 µM (inactive)

Question: What about the IC50 [21] of the same molecule?
Answer: 0.552 µM (active)

Question: With `Cc1ccc(C(=O)Nc2nnc(CC(=O)N/N=C/c3ccc(O)c(O)c3)s2)cc1` as the molecule, how does the EC50 [22] read?
Answer: 66 µM (active)

Question: And the IC50 (SUMO-activating enzyme [23])?
Answer: 1.71 µM (active)

Question: And the IC50 [24]?
Answer: 46 µM (active)

Question: What about the EC50 [25] of the same molecule?
Answer: 47.8 µM (active)

Question: What about the IC50 [26] of the same molecule?
Answer: 4.81 µM (active)

Question: What about the IC50 (SUMO-activating enzyme [27]) of the same molecule?
Answer: 37.1 µM (active)

Question: What about the EC50 [28] of the same molecule?
Answer: 37.2 µM (active)
